Results reported in patent publication US20090123518A1, “Biodegradable implants with controlled bulk density” (priority 2007, published 2009).

Test: Osmotic pressure of the drug in water
Assay type: physicochemical
Conditions: in water at room temperature
Description: As an example of this discovery, the inventors selected leuprolide acetate as a sample compound. The inventors then experimentally determined that the osmotic pressure of leuprolide acetate in water is approximately 5 atmospheres at room temperature.
“Osmotic pressure of the drug” means the pressure that must be applied to a solution to prevent the net flow of solvent molecules (such as water) through a semipermeable membrane from a solution of lower drug concentration to a solution of higher drug concentration. The osmotic pressure of the drug can be experimentally determined with use of a vapor pressure osmometer, such as the Vapro® vapor pressure osmometer.

Question: With `CCNC(=O)[C@@H]1CCCN1C(=O)[C@H](CCCNC(=N)N)NC(=O)[C@H](CC(C)C)NC(=O)[C@@H](CC(C)C)NC(=O)[C@H](Cc1ccc(O)cc1)NC(=O)[C@H](CO)NC(=O)[C@H](Cc1c[nH]c2ccccc12)NC(=O)[C@H](Cc1c[nH]cn1)NC(=O)[C@@H]1CCC(=O)N1` [leuprolide acetate] as the molecule, how does the osmotic pressure read?
Answer: approximately 5 atmospheres
